Publication PMC5267425, “Identification of small molecule modulators of HIV-1 Tat and Rev protein accumulation” (Retrovirology, 2017)

Columns and labels:
Format in all cases: cell-based
[1] = tested on: HIV-1 gene expression in HeLa rtTA HIV∆Mls cells; test: HIV-1 gene expression / virion production by p24 antigen ELISA, Dox-inducible provirus; conditions: for reduction of HIV-1 viral production relative to DMSO (+Dox): 791 30 µM, 833 2 µM, 892 15 µM, 24 h (Fig. 1); for IC50: Human immunodeficiency virus 1, HeLa
Description: Effects of compound treatment on HIV-1 gene expression were initially assessed in the context of HeLa rtTA HIV∆Mls cells stably transduced with an inducible Tet-On HIV-1 system (as previously described). The provirus was modified by either deletion in the reverse transcriptase and integrase region of the pol gene by an MlsI restriction digest (HeLa rtTA HIV∆Mls cell line) or GFP fusion to Gag, deleting the PR and RT-coding regions (HeLa rtTA HIVGagGFP cell line). […] All cell lines were maintained in Iscove’s modified Delbecco’s medium (IMDM; Wisent) supplemented with 10% (vol/vol) fetal bovine serum (FBS, Wisent), 1% penicillin/streptomycin (P/S, Wisent) and 0.2% Amphotericin B (Wisent). Indicator cell line CEM-GXR was obtained from Dr. Mark Brockman (Simon Fraser University). The RTI-resistant virus (E00443) was obtained from Dr. Zabrina Brumme (Simon Fraser University). The HIV-1 clade A (97USSN54 (N54)), HIV-1 clade B (IIIB), integrase inhibitor resistant virus (11845), protease inhibitor resistant virus (2948) were obtained through the NIH AIDS Research and Reference reagent program, Division of AIDS, NIAID, NIH).
The compounds used in the treatment assay were obtained from ChemBridge. All compounds were solubilized to 10 mM or 1 mM stock concentrations in dimethyl sulfoxide (DMSO) and stored at −20 °C for subsequent experiments. Cells were incubated for 3–5 h in the presence of the compounds prior to induction with doxycycline (Dox) at a final concentration of 2 μg/mL. 24 h post compound treatment, culture medium was harvested, adjusted to 1% Triton X-100, and incubated at 37 °C for 1 h for p24 antigen ELISA. Cells were harvested in 2 mM EDTA, 1xPBS. RNA was isolated using Aurum Total RNA extraction kits (Bio-Rad), while total protein was extracted with RIPA buffer (1% NP-40, 0.1% SDS, 0.5% sodium deoxycholate, 150 mM NaCl, 50 mM Tris–HCl).
ELISA for p24 Gag antigen was performed on cell supernatants using kits purchased from Frederick National Laboratory for Cancer Research (Leidos) or XpressBio extended range kit and performed according to manufacturer’s instructions. Protein concentration in cell lysates was quantified by Bradford assay and equal amounts of protein run on 7, 10, 12, or 14% SDS-PAGE, depending on the protein of interest. Following transfer to PVDF (BioRad or Perkin-Elmer), blots were blocked in either 5% Milk-PBS-T (5% Milk, 0.05% Tween-20, 1× PBS) or 3% BSA-PBS-T (3% BSA, 0.05% Tween-20, 1× PBS) prior to incubating with primary antibody (all diluted in 3% BSA-PBS-T). Primary antibodies used were: purified mouse anti-p24 supernatant from anti-HIV-1 Gag hybridoma 183, mouse anti-gp120 hybridoma 902 (NIH AIDS Reagent Program), mouse monoclonal antibody to HIV-1 Rev (Abcam), rabbit polyclonal antibody to HIV-1 Tat (Abcam), mouse monoclonal antibody to p53 (Santa Cruz), rabbit purified IgG for Nap1 (provided by L. Frappier), rabbit polyclonal antibody to GAPDH (Sigma-Aldrich), or mouse monoclonal antibody to α-Tubulin (Sigma-Aldrich). Following incubation with appropriate secondary antibody, blots were visualized by ECL, ECL Plus (Perkin-Elmer), or Clarity Western ECL substrate (BioRad). Quantification of the relative intensity of the detected bands was done using ImageLab software and normalized to corresponding bands of the loading control (GAPDH or α-Tubulin).

[2] = tested on: HIV-1 US RNA; test: FISH of HIV-1 US RNA and GagGFP in HeLa rtTA HIV GagGFP C7 cells; conditions: 791 30 µM, 833 2 µM, 892 15 µM
Protocol: Changes in HIV-1 US RNA subcellular distribution in response to compound treatment was analyzed by fluorescent in situ hybridization in HeLa HIVrtTA GagGFP cells, as described by Wong et al.. Following washing to remove unbound probe, nuclei were stained with DAPI and images were acquired using a Leica DMR microscope at 630× magnification.

[3] = tested on: HIV-1 Tat (p14, p16) and Gag; test: Rescue of Tat/Gag expression by proteasome inhibitor MG132; conditions: MG132 10 μM for 8 h in the presence of compound
Protocol: To assess effect of compounds on HIV-1 Tat stability, the decay of HIV-1 Tat levels was compared between DMSO-treated and compound-treated protein lysates in the presence of cycloheximide. In the first set of experiments, HIV-1 gene expression was induced with doxycylin (dox) for 24 h then 10 μg/mL cycloheximide was added to block new protein synthesis in combination with either DMSO or the compounds. Cells were harvested every 2 h and Tat protein levels measured by western blot. Quantification of the relative intensity of the detected bands was performed using ImageLab software (BioRad) and normalized to corresponding bands of the loading control (GAPDH) from at least three independent experiments. To determine whether the compounds’ effect on HIV-1 gene expression could be reversed by inhibition of the proteasome, compound treatment assay was performed as previously described with the addition of 10 μM MG132 (Sigma-Aldrich) to compound-treated cells 8 h prior to harvesting. Equal amounts of protein were run on 13 or 14% gels by SDS-PAGE, blotted and probed with antibodies for Tat and GAPDH. Quantification of the relative intensity of the detected bands was performed using ImageLab software (BioRad) and normalized to corresponding bands of the loading control (GAPDH) from at least three independent experiments.

Row | SMILES | reduction of HIV-1 viral production relative to DMSO (+Dox) [1] | IC50 [1] | GagGFP levels relative to DMSO [2] | cytoplasmic accumulation of HIV-1 US RNA [2] | accumulation of both Tat isoforms on addition of MG132 [3] | reduction in Gag expression ([1]; 1.5 µM)
1 | COc1ccc(C=NNC(=O)c2ccccc2O)cc1O [Compound 892, 2-hydroxy-N′-(3-hydroxy-4-methoxybenzylidene)benzohydrazide] | 80–90% | 1800 nM | reduced | prevented cytoplasmic accumulation | significant accumulation | –
2 | Cc1cc(NCc2cccnc2)n2ncc(-c3ccc(Cl)cc3)c2n1 [Compound 791, 3-(4-chlorophenyl)-5-methyl-N-(3-pyridinylmethyl)pyrazolo[1,5-a]pyrimidin-7-amine] | 80–90% | 8200 nM | reduced | prevented cytoplasmic accumulation | significant accumulation | –
3 | O=C(NC(=S)NNC(=O)c1ccccc1O)c1ccc(-c2ccccc2)cc1 [Compound 833, N-([2-(2-hydroxybenzoyl)hydrazino]carbonothioyl}-4-biphenylcarboxamide] | 80–90% | 600 nM | reduced | prevented cytoplasmic accumulation | significant accumulation | 90%
